Source: US20250312462A1, “PAK1 DEGRADERS AND METHODS OF USE THEREOF” (INSTITUTE FOR CANCER RESEARCH D/B/A THE RESEARCH INSTITUTE …, priority 2022, published 2025)

How the values were obtained:
Aiolos (IKZF3) = biological target: T1, Aiolos (IKZF3) (Homo sapiens, UniProt Q96SW2+Q9UKT9); assay: Global multiplexed mass spectrometry proteomics in MOLT4 cells; format: cell-based; conditions: 1 μM, 5 hours
T1 construct: endogenous in cells; host or cells: MOLT4
Description: (§1) MOLT4 cells were treated with DMSO in biological triplicate and 1 μM BJG-05-039 for 5 hours and harvested by centrifugation. Cell lysis was performed by the addition of Urea buffer (8 M Urea, 50 mM NaCl, 50 mM 4-(2-hydroxyethyl)-1-piperazineethanesulfonic acid (EPPS) pH 8.5, Protease and Phosphatase inhibitors) followed by manual homogenization by 20 passes through a 21-gauge (1.25 in. long) needle. Lysate was clarified by centrifugation at 4° C. and protein quantified using bradford (Bio-Rad) assay. 100 μg of protein for each sample was reduced, alkylated and precipitated using methanol/chloroform as described (Donovan, et al. (2018) Elife 7: e38430). The resulting precipitated protein was resuspended in 4 M Urea, 50 mM HEPES pH 7.4, buffer for solubilization, followed by dilution to 1 M urea with the addition of 200 mM EPPS, pH 8. Proteins were digested for 12 hours at room temperature with LysC (1:50 ratio), followed by dilution to 0.5 M urea and a second digestion step was performed by addition of trypsin (1:50 ratio) for 6 hours at 37° C. Anhydrous ACN was added to each peptide sample to a final concentration of 30%, followed by addition of Tandem mass tag (TMT) reagents at a labelling ratio of 1:4 peptide:TMT label. TMT labelling occurred over a 1.5 hour incubation at room temperature followed by quenching with the addition of hydroxylamine to a final concentration of 0.3%. Each of the samples were combined using adjusted volumes and dried down in a speed vacuum followed by desalting with C18 SPE (Sep-Pak, Waters). […]
(§2) Quantification was performed using a MS3-based TMT method as described (Donovan et al. (2020) Cell 183(6):1714-1731). […]
(§3) Proteome Discoverer 2.4 (Thermo Fisher Scientific) was used for .RAW file processing and controlling peptide and protein level false discovery rates, assembling proteins from peptides, and protein quantification from peptides. […]

Ikaros (IKZF1) = biological target: T2, Ikaros (IKZF1) (Homo sapiens, UniProt Q13422+Q96SW2); assay: as above; format: cell-based; conditions: 1 μM, 5 hours
T2 construct: endogenous in cells; host or cells: MOLT4
Description: as §1, §2, §3

RNF166 = biological target: T3, RNF166 (Homo sapiens, UniProt Q96A37+Q96SW2); assay: as above; format: cell-based; conditions: 1 μM, 5 hours
T3 construct: endogenous in cells; host or cells: MOLT4
Description: as §1, §2, §3

TNIK = TNIK (Homo sapiens, UniProt Q9UKE5); assay: KINOMEscan; conditions: read-out: Percent Control
Description: (§4) The kinase engagement assay (KINOMEscan®) was performed by DiscoverX assessing binding abilities toward a set of kinases.

CSNK1E = CSNK1E (Homo sapiens, UniProt P49674); assay: KINOMEscan; conditions: read-out: Percent Control
Description: as §4

MLCK = MLCK (Homo sapiens, UniProt Q32MK0); assay: KINOMEscan; conditions: read-out: Percent Control
Description: as §4

LIMK2 = LIMK2 (Homo sapiens, UniProt P53671); assay: KINOMEscan; conditions: read-out: Percent Control
Description: as §4

WNK4 = WNK4 (Homo sapiens, UniProt Q96J92); assay: KINOMEscan; conditions: read-out: Percent Control
Description: as §4

CSNK2A2 = CSNK2A2 (Homo sapiens, UniProt P19784); assay: KINOMEscan; conditions: read-out: Percent Control
Description: as §4

ULK1 = ULK1 (Homo sapiens, UniProt O75385); assay: KINOMEscan; conditions: read-out: Percent Control
Description: as §4

AURKC = AURKC (Homo sapiens, UniProt Q9UQB9); assay: KINOMEscan; conditions: read-out: Percent Control
Description: as §4

FER = FER (Homo sapiens, UniProt P16591); assay: KINOMEscan; conditions: read-out: Percent Control
Description: as §4

SNRK = SNRK (Homo sapiens, UniProt Q9NRH2); assay: KINOMEscan; conditions: read-out: Percent Control
Description: as §4

MARK1 = MARK1 (Homo sapiens, UniProt Q9P0L2); assay: KINOMEscan; conditions: read-out: Percent Control
Description: as §4

[1] = biological target: ABL1(Q252H)-phosphorylated (Homo sapiens, UniProt P00519, Q252H); assay: KINOMEscan; conditions: read-out: Percent Control
Description: as §4

PIK3CA(C420R) = PIK3CA(C420R) (Homo sapiens, UniProt P42336, C420R); assay: KINOMEscan; conditions: read-out: Percent Control
Description: as §4

PRKCE = PRKCE (Homo sapiens, UniProt Q02156); assay: KINOMEscan; conditions: read-out: Percent Control
Description: as §4

Chain of MLCK (Q32MK0 whole entry): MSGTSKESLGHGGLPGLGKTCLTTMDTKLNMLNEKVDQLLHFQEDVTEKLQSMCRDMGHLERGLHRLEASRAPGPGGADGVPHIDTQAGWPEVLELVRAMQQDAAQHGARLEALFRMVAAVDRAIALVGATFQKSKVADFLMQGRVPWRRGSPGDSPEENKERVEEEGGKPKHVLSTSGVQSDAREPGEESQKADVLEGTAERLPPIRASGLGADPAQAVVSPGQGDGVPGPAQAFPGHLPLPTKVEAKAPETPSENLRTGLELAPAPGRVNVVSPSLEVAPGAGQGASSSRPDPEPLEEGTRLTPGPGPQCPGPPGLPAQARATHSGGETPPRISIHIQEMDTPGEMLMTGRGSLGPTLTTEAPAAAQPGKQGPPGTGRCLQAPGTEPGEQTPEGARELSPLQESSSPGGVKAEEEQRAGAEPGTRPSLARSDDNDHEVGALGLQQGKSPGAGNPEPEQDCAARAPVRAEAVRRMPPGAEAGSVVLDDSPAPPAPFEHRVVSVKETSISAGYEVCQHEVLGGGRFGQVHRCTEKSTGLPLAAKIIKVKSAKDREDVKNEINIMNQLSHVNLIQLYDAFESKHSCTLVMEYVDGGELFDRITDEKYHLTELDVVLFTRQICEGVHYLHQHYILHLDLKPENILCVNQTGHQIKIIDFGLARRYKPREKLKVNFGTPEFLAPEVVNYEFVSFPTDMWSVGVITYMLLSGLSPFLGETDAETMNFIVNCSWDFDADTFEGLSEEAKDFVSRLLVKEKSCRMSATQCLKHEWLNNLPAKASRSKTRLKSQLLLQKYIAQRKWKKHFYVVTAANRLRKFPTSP
Chain of CSNK1E (P49674 whole entry): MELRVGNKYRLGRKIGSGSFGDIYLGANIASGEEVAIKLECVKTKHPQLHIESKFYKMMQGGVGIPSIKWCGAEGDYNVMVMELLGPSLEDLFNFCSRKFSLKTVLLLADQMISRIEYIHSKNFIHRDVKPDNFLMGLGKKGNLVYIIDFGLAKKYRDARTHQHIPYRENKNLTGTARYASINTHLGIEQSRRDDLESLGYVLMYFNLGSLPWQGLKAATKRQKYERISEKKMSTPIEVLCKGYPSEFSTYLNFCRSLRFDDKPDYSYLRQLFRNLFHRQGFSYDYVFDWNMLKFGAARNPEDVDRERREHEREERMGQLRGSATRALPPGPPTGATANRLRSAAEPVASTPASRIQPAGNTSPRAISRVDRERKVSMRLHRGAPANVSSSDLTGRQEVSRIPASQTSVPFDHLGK
Chain of CSNK2A2 (P19784 whole entry): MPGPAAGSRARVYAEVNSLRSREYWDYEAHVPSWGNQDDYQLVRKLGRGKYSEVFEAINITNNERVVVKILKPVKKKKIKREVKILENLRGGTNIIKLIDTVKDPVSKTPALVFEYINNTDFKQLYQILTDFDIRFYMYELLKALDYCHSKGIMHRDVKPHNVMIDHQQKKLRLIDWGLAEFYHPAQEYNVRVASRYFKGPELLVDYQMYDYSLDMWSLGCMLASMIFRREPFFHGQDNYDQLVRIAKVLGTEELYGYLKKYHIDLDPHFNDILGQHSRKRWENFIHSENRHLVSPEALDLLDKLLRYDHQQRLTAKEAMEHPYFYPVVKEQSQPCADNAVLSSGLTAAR
T2 sequence (Q13422 whole entry): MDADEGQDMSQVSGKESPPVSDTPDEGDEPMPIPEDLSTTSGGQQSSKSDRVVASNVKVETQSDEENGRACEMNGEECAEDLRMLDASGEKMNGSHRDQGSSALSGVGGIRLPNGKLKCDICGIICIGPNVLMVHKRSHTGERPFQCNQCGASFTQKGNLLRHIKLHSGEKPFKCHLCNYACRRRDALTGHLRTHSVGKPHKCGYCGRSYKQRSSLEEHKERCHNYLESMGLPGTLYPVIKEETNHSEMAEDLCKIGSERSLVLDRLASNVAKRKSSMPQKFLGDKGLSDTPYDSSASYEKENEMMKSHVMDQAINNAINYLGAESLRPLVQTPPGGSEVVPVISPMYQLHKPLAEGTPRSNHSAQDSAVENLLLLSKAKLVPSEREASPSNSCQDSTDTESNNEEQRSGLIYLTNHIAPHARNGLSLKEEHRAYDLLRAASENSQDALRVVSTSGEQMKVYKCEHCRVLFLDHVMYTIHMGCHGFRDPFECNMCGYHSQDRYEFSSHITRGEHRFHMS
T2 sequence (Q96SW2 whole entry): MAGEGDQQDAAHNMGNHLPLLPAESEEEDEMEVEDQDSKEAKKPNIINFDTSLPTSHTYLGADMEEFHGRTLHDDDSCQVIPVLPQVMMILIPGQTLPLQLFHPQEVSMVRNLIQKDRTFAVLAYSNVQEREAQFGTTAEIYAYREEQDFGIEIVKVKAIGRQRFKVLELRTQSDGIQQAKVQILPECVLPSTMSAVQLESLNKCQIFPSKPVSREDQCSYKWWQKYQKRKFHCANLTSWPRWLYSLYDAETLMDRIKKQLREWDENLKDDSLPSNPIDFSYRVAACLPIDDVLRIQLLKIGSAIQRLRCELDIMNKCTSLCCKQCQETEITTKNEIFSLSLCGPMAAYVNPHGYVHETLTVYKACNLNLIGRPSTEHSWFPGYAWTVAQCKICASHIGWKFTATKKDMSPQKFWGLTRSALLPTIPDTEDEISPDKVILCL
T2 sequence (Q16531 whole entry partner): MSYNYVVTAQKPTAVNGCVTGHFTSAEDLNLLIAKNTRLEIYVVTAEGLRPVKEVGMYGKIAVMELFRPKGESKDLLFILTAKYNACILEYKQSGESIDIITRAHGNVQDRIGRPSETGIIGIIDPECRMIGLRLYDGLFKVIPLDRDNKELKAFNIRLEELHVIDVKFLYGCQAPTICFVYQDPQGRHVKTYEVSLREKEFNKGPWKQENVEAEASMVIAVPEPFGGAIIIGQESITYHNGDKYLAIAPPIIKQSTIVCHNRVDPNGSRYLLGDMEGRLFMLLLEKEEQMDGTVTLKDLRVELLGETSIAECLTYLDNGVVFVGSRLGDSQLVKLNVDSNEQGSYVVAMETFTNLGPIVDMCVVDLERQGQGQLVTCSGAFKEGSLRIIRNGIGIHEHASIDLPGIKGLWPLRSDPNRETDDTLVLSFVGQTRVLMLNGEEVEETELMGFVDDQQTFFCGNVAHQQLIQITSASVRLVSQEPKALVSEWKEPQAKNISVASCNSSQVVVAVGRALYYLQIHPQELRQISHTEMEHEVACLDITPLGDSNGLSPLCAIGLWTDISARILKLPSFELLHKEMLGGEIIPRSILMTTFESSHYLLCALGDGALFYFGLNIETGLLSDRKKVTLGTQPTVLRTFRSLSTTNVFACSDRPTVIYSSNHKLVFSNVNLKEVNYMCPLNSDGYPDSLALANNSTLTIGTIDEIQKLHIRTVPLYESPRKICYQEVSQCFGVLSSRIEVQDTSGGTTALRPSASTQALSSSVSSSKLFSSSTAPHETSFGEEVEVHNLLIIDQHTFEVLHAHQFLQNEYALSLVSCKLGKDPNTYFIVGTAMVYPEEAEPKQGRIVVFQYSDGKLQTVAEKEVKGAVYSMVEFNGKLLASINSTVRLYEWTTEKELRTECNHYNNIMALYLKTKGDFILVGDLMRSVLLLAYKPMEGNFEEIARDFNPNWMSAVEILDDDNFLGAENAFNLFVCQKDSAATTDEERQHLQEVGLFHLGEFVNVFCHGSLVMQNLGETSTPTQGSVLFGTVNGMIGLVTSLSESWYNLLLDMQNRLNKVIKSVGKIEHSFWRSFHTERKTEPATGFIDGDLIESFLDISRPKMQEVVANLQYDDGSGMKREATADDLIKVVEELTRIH
Chain of ULK1 (O75385 whole entry): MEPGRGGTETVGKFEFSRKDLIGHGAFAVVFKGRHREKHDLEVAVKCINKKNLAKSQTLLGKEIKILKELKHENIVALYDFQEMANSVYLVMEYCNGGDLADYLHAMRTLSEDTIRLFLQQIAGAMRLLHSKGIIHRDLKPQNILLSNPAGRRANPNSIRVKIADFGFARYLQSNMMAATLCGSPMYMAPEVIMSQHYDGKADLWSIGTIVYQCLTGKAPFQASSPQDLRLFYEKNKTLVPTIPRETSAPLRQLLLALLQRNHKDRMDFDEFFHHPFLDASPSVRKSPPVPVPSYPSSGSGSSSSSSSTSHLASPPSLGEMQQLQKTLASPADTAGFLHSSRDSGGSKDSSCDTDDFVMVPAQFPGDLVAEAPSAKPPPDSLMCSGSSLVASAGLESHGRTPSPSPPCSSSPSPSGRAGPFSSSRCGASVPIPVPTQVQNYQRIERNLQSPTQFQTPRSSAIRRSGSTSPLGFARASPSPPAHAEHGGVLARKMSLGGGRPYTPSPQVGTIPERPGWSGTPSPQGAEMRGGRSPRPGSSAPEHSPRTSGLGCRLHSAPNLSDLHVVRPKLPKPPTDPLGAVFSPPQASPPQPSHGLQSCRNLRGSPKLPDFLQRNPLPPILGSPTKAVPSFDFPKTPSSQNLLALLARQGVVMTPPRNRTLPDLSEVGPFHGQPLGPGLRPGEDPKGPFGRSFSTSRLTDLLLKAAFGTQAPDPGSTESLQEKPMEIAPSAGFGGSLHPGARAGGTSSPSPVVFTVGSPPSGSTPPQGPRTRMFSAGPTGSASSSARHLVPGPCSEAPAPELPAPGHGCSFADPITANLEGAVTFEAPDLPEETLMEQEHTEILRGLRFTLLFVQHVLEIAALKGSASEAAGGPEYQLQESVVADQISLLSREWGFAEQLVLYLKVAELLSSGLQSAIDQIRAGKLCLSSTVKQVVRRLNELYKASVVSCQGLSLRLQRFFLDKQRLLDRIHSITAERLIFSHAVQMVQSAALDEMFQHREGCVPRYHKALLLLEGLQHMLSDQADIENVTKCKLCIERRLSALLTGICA
Chain of AURKC (Q9UQB9 whole entry): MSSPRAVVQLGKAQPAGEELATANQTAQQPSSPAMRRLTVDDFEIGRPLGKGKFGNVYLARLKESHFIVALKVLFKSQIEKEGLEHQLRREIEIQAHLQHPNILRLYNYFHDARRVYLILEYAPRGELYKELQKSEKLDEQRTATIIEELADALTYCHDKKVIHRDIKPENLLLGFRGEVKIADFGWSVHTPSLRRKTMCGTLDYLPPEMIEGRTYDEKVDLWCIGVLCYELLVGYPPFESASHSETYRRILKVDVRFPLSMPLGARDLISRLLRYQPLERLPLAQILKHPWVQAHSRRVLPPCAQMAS

O=C1CCC(N2C(=O)c3cccc(NCCCCCCCCNC(=O)N4CC[C@H](NC5=Nc6cc(F)ccc6N(CC(F)F)c6ccc(Cl)cc65)C4)c3C2=O)C(=O)N1 (stereo partly drawn) [BJG-05-039, (3S)-3-((2-Chloro-5-(2,2-difluoroethyl)-8-fluoro-5H-dibenzo[b,e][1,4]diazepin-11-yl)amino)-N-(8-((2-(2,6-dioxopiperidin-3-yl)-1,3-dioxoisoindolin-4-yl)amino)octyl)pyrrolidine-1-carboxamide]
Change in protein abundance (Aiolos (IKZF3)): strongly downregulated
Change in protein abundance (Ikaros (IKZF1)): strongly downregulated
Change in protein abundance (RNF166): strongly downregulated
remaining binding at 10 µM (TNIK): 48%
remaining binding at 10 µM (CSNK1E): 61%
remaining binding at 10 µM (MLCK): 66%
remaining binding at 10 µM (LIMK2): 72%
remaining binding at 10 µM (WNK4): 77%
remaining binding at 10 µM (CSNK2A2): 78%
remaining binding at 10 µM (ULK1): 78%
remaining binding at 10 µM (AURKC): 83%
remaining binding at 10 µM (FER): 88%
remaining binding at 10 µM (SNRK): 89%
remaining binding at 10 µM (MARK1): 98%
remaining binding at 10 µM [1]: 100%
remaining binding at 10 µM (PIK3CA(C420R)): 100%
remaining binding at 10 µM (PRKCE): 100%
